Data as given in patent US9890185B2, “Urea derivatives useful as kinase inhibitors” (Respivert Limited, priority 2013, dated 2018).

Key:
[1] = molecular target: p38 MAPKα isoform (MAPK14) (Homo sapiens (Human), UniProt Q16539); test: p38 MAPKα enzyme inhibition (FRET, Z-LYTE, Method 2); type: biochemical
How it was run: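 Z-LYTE FRET: p38 MAPKα (80 ng/mL for Method 1, 200 ng/mL for Method 2, pre-dilution) preincubated 2 hr RT with compound (4–0.004 μg/mL solutions), activity read via MAPKAP-K2 phosphorylation after 1 hr RT and 1 hr protease development. Coumarin/fluorescein ratio gives phosphorylation; % inhibition versus uninhibited control, IC50 from concentration-response curve.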

Syk = Syk (Homo sapiens (Human), UniProt P43405); test: Syk enzyme inhibition (FRET, Z-LYTE); type: biochemical
How it was run: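 Fluorescence-ratio kinase assay: 2 hr compound–enzyme preincubation at RT, 1 hr reaction with ATP added as 800 μM (c-Src) or 60 μM (Syk) solution. IC50 derived from percent inhibition curves.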

GSK 3α = GSK 3α (Homo sapiens (Human), UniProt P49840); test: GSK 3α enzyme inhibition (FRET, Z-LYTE, Method 2); type: biochemical; settings: read-out: IC50 Values for Enzyme Inhibition, GSK3α
Chain of GSK 3α (P49840 whole entry): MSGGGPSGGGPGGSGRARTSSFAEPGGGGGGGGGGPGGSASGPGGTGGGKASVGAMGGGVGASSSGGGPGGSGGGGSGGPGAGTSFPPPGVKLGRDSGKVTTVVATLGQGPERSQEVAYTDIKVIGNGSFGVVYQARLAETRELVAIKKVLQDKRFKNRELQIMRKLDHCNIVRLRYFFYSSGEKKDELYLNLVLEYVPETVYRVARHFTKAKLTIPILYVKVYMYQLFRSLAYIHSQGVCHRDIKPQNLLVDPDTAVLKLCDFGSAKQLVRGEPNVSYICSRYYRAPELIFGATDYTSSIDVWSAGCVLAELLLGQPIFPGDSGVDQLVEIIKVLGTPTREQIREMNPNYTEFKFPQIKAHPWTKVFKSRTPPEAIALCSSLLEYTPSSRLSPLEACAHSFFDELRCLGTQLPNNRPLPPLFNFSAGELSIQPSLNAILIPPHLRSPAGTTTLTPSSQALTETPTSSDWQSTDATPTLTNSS
How it was run: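 Human GSK3α (500 ng/mL) preincubated with compound (4, 0.4, 0.04 or 0.004 μg/mL) at RT for 2 h (Method 1) or 105 min (Method 2). Then FRET peptide (8 μM) and ATP (40 μM) added for 1 h, followed by protease development for 1 h. IC50 from the coumarin/fluorescein emission ratio relative to uninhibited control.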

PBMCs = test: Cell mitosis assay in PBMCs (assay g); type: cell-based; settings: Homo sapiens, PBMC, test compound 5 μg/mL
How it was run: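 Human PBMCs from healthy donors, stimulated with 2% PHA for 48 hr, then exposed to test compounds for 20 hr, with demecolcine (0.1 μg/mL) added 2 hr before harvest. Cells fixed/permeabilised, stained for phospho-histone 3 and propidium iodide, and read by flow cytometry gated on lymphocytes. % mitosis inhibition vs 0.5% DMSO vehicle.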

d-U937 cells = test: Accumulation of β catenin in d-U937 cells (assay m); type: cell-based, human; settings: percentage relative to Reference Compound at 1 μg/mL
How it was run: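 PMA-differentiated (100 ng/mL, 48–72 hr) human U937 macrophage-type cells treated with test compound or vehicle for 18 hr. β-catenin measured by in-cell ELISA (anti-β-catenin, HRP secondary, TMB, OD450–655). Signal corrected for cell number by dividing by crystal violet OD595.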

Chain of p38 MAPKα isoform (MAPK14) (Q16539 whole entry, canonical isoform): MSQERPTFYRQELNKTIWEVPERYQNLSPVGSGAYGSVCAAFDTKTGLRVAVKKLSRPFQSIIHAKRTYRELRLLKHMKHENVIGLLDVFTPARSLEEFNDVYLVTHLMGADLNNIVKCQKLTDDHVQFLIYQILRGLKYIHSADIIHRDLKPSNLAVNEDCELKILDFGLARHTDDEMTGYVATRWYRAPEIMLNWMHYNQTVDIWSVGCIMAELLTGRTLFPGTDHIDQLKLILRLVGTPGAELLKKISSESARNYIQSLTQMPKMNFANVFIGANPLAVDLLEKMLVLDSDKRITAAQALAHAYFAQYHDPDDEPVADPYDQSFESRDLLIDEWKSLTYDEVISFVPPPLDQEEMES

| IC50 [1] | IC50 (Syk) | IC50 (GSK 3α) | Compound | inhibition at 5 µg/mL (PBMCs) | % β-catenin induction (d-U937 cells; test compound 1 μg/mL) | % β-catenin induction (d-U937 cells; test compound 5 μg/mL) | % β-catenin induction (d-U937 cells; test compound 10 μg/mL) |
| --- | --- | --- | --- | --- | --- | --- | --- |
| 193 nM | 656 nM | > 9900 nM | COc1c(NC(=O)Nc2ccc(Oc3ccnc(Nc4ccccc4)c3)c3ccccc23)cc(C(C)(C)C)cc1[S+](C)[O-] (racemic) [Example 12, 1-(5-(tert-Butyl)-2-methoxy-3-(methylsulfinyl)phenyl)-3-(4-((2-(phenylamino)pyridin-4-yl)oxy)naphthalen-1-yl)urea] | 23.2% | −0.5% | 5.0% | 6.0% |
| 177 nM | 134 nM | > 12200 nM | COCCOCCOCCOc1cc(Nc2cc(Oc3ccc(NC(=O)Nc4cc(C(C)(C)C)cc(CS(C)(=O)=O)c4OC)c4ccccc34)ccn2)cc(OC)c1 [15(a), 1-(5-(tert-butyl)-2-methoxy-3-((methylsulfonyl)methyl)phenyl)-3-(4-((2-((3-methoxy-5-(2-(2-(2-methoxyethoxy)ethoxy)ethoxy)phenyl)amino)pyridin-4-yl)oxy)naphthalen-1-yl)urea] | 56.8% | −4.0% | −5.0% | −3.0% |
| 181 nM | 1000 nM | 1600 nM | COc1c(NC(=O)Nc2ccc(Oc3ccnc(Nc4cccnc4)c3)c3ccccc23)cc(C(C)(C)C)cc1P(C)(C)=O [15(ad), 1-(5-(tert-butyl)-3-(dimethylphosphoryl)-2-methoxyphenyl)-3-(4-((2-(pyridin-3-ylamino)pyridin-4-yl)oxy)naphthalen-1-yl)urea] | 31% | 12.0% | 36.0% | 49.0% |
| 344 nM | 712 nM | > 15200 nM | COc1cc(F)cc(Nc2cc(Oc3ccc(NC(=O)Nc4cc(C(C)(C)C)cc(P(C)(C)=O)c4OC)c4ccccc34)ccn2)c1 [15(an), 1-(5-(tert-butyl)-3-(dimethylphosphoryl)-2-methoxyphenyl)-3-(4-((2-((3-fluoro-5-methoxyphenyl)amino)pyridin-4-yl)oxy)naphthalen-1-yl)urea] | 50.3% | 1.5% | 11.5% | 13.5% |
| 219 nM | > 1630 nM | 4660 nM | COc1c(NC(=O)Nc2ccc(Oc3ccnc(Nc4cnn(C)n4)n3)c3ccccc23)cc(C(C)(C)C)cc1P(C)(C)=O [15(x), 1-(5-(tert-butyl)-3-(dimethylphosphoryl)-2-methoxyphenyl)-3-(4-((2-((2-methyl-2H-1,2,3-triazol-4-yl)amino)pyrimidin-4-yl)oxy)naphthalen-1-yl)urea] | 18.4% | 7.0% | 4.0% | 4.0% |
| 13 nM | > 1650 nM | 2240 nM | COc1c(CC(N)=O)cc(C(C)(C)C)cc1NC(=O)Nc1ccc(Oc2ccnc(NCc3ccccn3)c2)c2ccccc12 [38(d), 2-(5-(tert-Butyl)-2-methoxy-3-(3-(4-((2-((pyridin-2-ylmethyl)amino)pyridin-4-yl)oxy)naphthalen-1-yl)ureido)phenyl)acetamide] | 28.1% | 2.5% | 19.5% | 30.0% |
| 226 nM | 837 nM | 14800 nM | COc1c(CC(N)=O)cc(C(C)(C)C)cc1NC(=O)Nc1ccc(Oc2ccnc(Nc3cc(C)cc(C)c3)c2)c2ccccc12 [38(f), 2-(5-(tert-Butyl)-3-(3-(4-((2-((3,5-dimethylphenyl)amino)pyridin-4-yl)oxy)naphthalen-1-yl)ureido)-2-methoxyphenyl)acetamide] | 37.8% | 2.0% | 3.3% | 8.3% |
| 123 nM | 1080 nM | > 14600 nM | CNC(=O)Cc1cc(C(C)(C)C)cc(NC(=O)Nc2ccc(Oc3ccnc(Nc4cccc(OC)c4)c3)c3ccccc23)c1OC [38(h), 2-(5-(tert-Butyl)-2-methoxy-3-(3-(4-((2-((3-methoxyphenyl)amino)pyridin-4-yl)oxy)naphthalen-1-yl)ureido)phenyl)-N-methylacetamide] | 30.3% | 1.5% | 4.0% | 6.0% |
| 152 nM | > 1610 nM | 2620 nM | COc1cc(Nc2cc(Oc3ccc(NC(=O)Nc4cc(C(C)(C)C)cc(CC(N)=O)c4OC)c4ccccc34)ccn2)ccn1 [38(k), 2-(5-(tert-Butyl)-2-methoxy-3-(3-(4-((2-((2-methoxypyridin-4-yl)amino)pyridin-4-yl)oxy)naphthalen-1-yl)ureido)phenyl)acetamide] | 70.5% | 10.5% | 39.5% | 52.0% |
| 48 nM | 364 nM | 3380 nM | COc1cc(CO)cc(Nc2cc(Oc3ccc(NC(=O)Nc4cc(C(C)(C)C)cc(CC(N)=O)c4OC)c4ccccc34)ccn2)c1 [38(m), 2-(5-(tert-Butyl)-3-(3-(4-((2-((3-(hydroxymethyl)-5-methoxyphenyl)amino)pyridin-4-yl)oxy)naphthalen-1-yl)ureido)-2-methoxyphenyl)acetamide] | 77.4% | 3.0% | 23.0% | 37.0% |
| 43 nM | > 1610 nM | 1200 nM | COc1cncc(Nc2cc(Oc3ccc(NC(=O)Nc4cc(C(C)(C)C)cc(CC(N)=O)c4OC)c4ccccc34)ccn2)c1 [38(n), 2-(5-(tert-butyl)-2-methoxy-3-(3-(4-((2-((5-methoxypyridin-3-yl)amino)pyridin-4-yl)oxy)naphthalen-1-yl)ureido)phenyl)acetamide] | 66.1% | 2.0% | 21.0% | 23.5% |
| 9 nM | 381 nM | 1050 nM | COc1c(CC(N)=O)cc(C(C)(C)C)cc1NC(=O)Nc1ccc(Oc2ccnc(Nc3ccn(C)n3)c2)c2ccccc12 [38(o), 2-(5-(tert-Butyl)-2-methoxy-3-(3-(4-((2-((1-methyl-1H-pyrazol-3-yl)amino)pyridin-4-yl)oxy)naphthalen-1-yl)ureido)phenyl)acetamide] | 83.2% | 13.0% | 38.0% | 35.0% |
| 32 nM | 98 nM | 3660 nM | COc1cc(Nc2cc(Oc3ccc(NC(=O)Nc4cc(C(C)(C)C)cc([S+](C)[O-])c4OC)c4ccccc34)ccn2)ccc1C(=O)NCCN1CCOCC1 (stereo not drawn) [Example 72, 4-((4-((4-(3-(5-(tert-Butyl)-2-methoxy-3-(methylsulfinyl)phenyl)ureido)naphthalen-1-yl)oxy)pyridin-2-yl)amino)-2-methoxy-N-(2-morpholinoethyl)benzamide] | 36.8% |  |  |  |
| 31 nM | 120 nM | 1980 nM | COc1cc(Nc2cc(Oc3ccc(NC(=O)Nc4cc(C(C)(C)C)cc(CC(N)=O)c4OC)c4ccccc34)ccn2)ccc1C(=O)NCC(CO)(CO)CO [Example 73, 4-((4-((4-(3-(3-(2-Amino-2-oxoethyl)-5-(tert-butyl)-2-methoxyphenyl)ureido)naphthalen-1-yl)oxy)pyridin-2-yl)amino)-N-(3-hydroxy-2,2-bis(hydroxymethyl)propyl)-2-methoxybenzamide] | 19.8% |  |  |  |
| 20 nM | 51 nM | 2620 nM | COCCOCCOCCNC(=O)c1cc(Nc2cc(Oc3ccc(NC(=O)Nc4cc(C(C)(C)C)cc(CNC(=O)CN(C)C)c4OC)c4ccccc34)ccn2)cc(OC)c1 [Example 77, 3-((4-((4-(3-(5-(tert-Butyl)-3-((2-(dimethylamino)acetamido)methyl)-2-methoxyphenyl)ureido)naphthalen-1-yl)oxy)pyridin-2-yl)amino)-5-methoxy-N-(2-(2-(2-methoxyethoxy)ethoxy)ethyl)benzamide] | 58.7% |  |  |  |
